{"source": "patent US20120128821A1", "about": "“PROBIOTIC MICROORGANISMS ISOLATED FROM DONKEY MILK” (EUROLACTIS GROUP SA, priority 2009, published 2012)", "assay": "Production of organic acids after fermentation in donkey milk (HPLC)", "settings": "absolute area, produced during fermentation, grown in donkey milk", "method": "The production of organic acids after fermentation was determined by high-performance liquid chromatography of filtered supernatants (Vulevic, Rastall & Gibson, 2004; Nazzaro et al. 2009), using a Gold System apparatus equipped with an ultraviolet detector (Beckman, CA, USA). Samples were loaded onto a pre-packed Aminex HPX-87 column (300 7.8 mm, Bio-Rad, Hercules, Calif., USA) and eluted with […] sulphuric acid. Total running time was 40 min; flow rate was 0.6 ml/min; injection volume was 20 μl; and detection wavelength was 210 nm.\nIn the following tables are reported the amount of butyric acid and citric acid produced during fermentation by strains of the invention and some strains of reference, grown in donkey milk. The data are expressed in terms of absolute area (mm^2): […]"}
{"substance": "Lactobacillus acidophilus", "values": [{"measurement": "Amount of butyric acid", "value": 26.21, "unit": "mm^2"}, {"measurement": "Amount of citric acid", "value": 51.37, "unit": "mm^2"}]}
